From paper PMC9914633 (International Journal of Environmental Research and Public …, 2023)

Molecular target: T1, xoSNAT1 (Xanthomonas oryzae, UniProt A0ACG7R854)
T1 construct: gene DZA53_20490
Conditions: serotonin 0.5 mM; acetyl-CoA 0.5 mM; 100 mM potassium phosphate pH 8.8; 35 °C

## NCCc1c[nH]c2ccc(O)cc12 [serotonin]
  LC-MS/MS of serotonin and product: GST and xoSNAT2 have no SNAT activity, while xoSNAT1 showed only low activity
